Source: ChEMBL document CHEMBL1926576, “Fragment based lead discovery of small molecule inhibitors for the EPHA4 receptor tyrosine kinase” (Eur J Med Chem, 2012)

Experiments:
[1] = molecular target: T1, Ephrin type-A receptor 4 (Homo sapiens, UniProt P54764); test: Inhibition of his-tagged EPHA4-mediated poly(Glu,Tyr) phosphorylation at 500 uM after 75 mins using E4:Y1 as substrate by fluorescence assay
[2] = molecular target: T1, Ephrin type-A receptor 4; test: Inhibition of his-tagged EPHA4-mediated poly(Glu,Tyr) phosphorylation after 75 mins using E4:Y1 as substrate by fluorescence assay
[3] = molecular target: T1, Ephrin type-A receptor 4; test: Inhibition of his-tagged EPHA4-mediated poly(Glu,Tyr) phosphorylation at 200 uM after 75 mins using E4:Y1 as substrate by fluorescence assay

T1 sequence (P54764 whole entry): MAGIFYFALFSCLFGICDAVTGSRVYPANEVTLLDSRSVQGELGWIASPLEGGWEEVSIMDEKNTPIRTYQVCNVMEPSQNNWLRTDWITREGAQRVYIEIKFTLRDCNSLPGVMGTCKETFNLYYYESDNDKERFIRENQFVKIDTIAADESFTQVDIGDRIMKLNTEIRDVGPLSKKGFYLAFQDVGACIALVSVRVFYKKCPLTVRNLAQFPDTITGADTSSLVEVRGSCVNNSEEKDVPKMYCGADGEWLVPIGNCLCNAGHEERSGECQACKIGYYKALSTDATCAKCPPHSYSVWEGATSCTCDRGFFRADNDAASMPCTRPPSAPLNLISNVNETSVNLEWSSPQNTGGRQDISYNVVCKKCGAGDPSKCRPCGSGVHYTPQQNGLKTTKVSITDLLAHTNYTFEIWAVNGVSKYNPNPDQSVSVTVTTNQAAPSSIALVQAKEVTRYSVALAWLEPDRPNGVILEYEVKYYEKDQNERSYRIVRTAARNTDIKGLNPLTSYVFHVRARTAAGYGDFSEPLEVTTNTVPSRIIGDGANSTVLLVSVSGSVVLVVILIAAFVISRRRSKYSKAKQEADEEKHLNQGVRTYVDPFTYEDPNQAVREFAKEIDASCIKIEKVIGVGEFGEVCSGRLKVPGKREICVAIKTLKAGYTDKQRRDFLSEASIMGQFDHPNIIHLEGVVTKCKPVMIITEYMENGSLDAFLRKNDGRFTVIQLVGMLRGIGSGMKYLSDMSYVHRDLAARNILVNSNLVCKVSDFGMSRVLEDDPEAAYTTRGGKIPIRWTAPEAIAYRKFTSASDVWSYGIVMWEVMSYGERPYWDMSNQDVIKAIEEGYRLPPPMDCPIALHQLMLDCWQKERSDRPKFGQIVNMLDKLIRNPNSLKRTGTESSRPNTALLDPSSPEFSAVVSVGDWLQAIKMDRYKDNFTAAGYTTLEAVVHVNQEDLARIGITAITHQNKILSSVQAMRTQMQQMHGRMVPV

Row | SMILES | inhibition [3] | also measured
1 | Nc1n[nH]c2ncc3c(c12)CCCC3 | – | inhibition [1]: 80%
2 | Nc1n[nH]c2nc(-c3ccccc3Cl)c3c(c12)CCCC3 | – | IC50 [2]: 8.1 µM
3 | Cc1cc(C)c2c(NC(=O)c3ccccc3)n[nH]c2n1 | 10% | –
4 | Nc1n[nH]c2ncc3c(c12)CCCCCC3 | 80% | –
5 | CN1CCc2c(c(NCc3ccccc3)nc3[nH]nc(N)c23)C1 | 33% | –
6 | CCN(CC)c1nc2[nH]nc(N)c2c2c1CN(C)CC2 | 5% | –
7 | Cc1nc2[nH]nc(N)c2c2c1CSC(C)(C)C2 | 70% | –
8 | CC1(C)Cc2c(c(-c3ccccc3)nc3[nH]nc(N)c23)CS1 | 87% | –
9 | CC1(C)Cc2c(c(-c3ccco3)[nH]c3nnc(N)c2-3)CO1 | 75% | –
10 | CN1CCc2c(c(NCCO)nc3[nH]nc(N)c23)C1 | 0% | –
11 | CN1CCc2c(c(N3CCOCC3)nc3[nH]nc(N)c23)C1 | 0% | –
12 | CC(C)c1nc2[nH]nc(N)c2c2c1COC(C)(C)C2 | 82% | –
13 | Cc1ccccc1-c1nc2[nH]nc(N)c2c2c1CCCC2 | – | IC50 [2]: 2 µM
14 | CC1(C)Cc2c(c(-c3ccccc3)nc3[nH]nc(N)c23)CO1 | 90% | –
15 | CCCc1nc2[nH]nc(N)c2c2c1COC(C)(C)C2 | 77% | –
